The source of these data is paper PMC7076013 (Scientific Reports, 2020).

For test [1], the system named is four melanoma and four colon cancer cell lines. Kind of test: MTT and CV viability, whole panel of cell lines. It is filed as cell-based. As to conditions: 48 h. The method, then: Both melanoma and colon cancer are tumor types tightly connected with inflammation, while the expression of COX-2 in the selected cell lines was highly variable. Since a lot of discrepancies were found in the literature concerning the expression of this enzyme[5],[48]–[53], both COX-1 and COX-2 expression was analyzed by Western blot. […] The cells were treated with a wide range of doses of 4a–c, 5, and 6 for 48 h and cell viability was determined by MTT (3-(4,5-dimethylthiazol-2-yl)-2,5-diphenyltetrazolium bromide) and CV (crystal violet) assays. The obtained IC50 values were similar for both assays (Table 1).
Reagents were obtained from Sigma (St. Louis, MO) unless indicated otherwise. […]
S ystems, Minneapolis, MN USA). […] After being detached b y tr ypsinization, cells were seeded in defined number as follows: 2.5 × 10^3 cells/well in 96-well plates for viability assessment and 2 × 10^4 cells/well in 24-well plates for flow cytometry. […]
Before treatment, non- adherent cells were removed. Compounds 4a- c, 5 and 6 were dissolved in DMSO and stored at −20 °C for a m onth. […]
The number of viable cel ls in culture was estimated by the MTT (3-(4,5- dimethylthiazol- 2-yl ) - 2,5- diphenyltetrazolium bromide) and CV (crystal violet) tests. Cells were incubated in the presence of compounds 4a- c, 5 and 6 for 48 h, then the viability was measured as described.4 […]

The subject of another test is 518A2 cells. Kind of test: Intracellular NO (DAF), 518A2. As to conditions: 518A2, 48 h; untreated 44.9 ± 5.9. It counts as cell-based, human. The method, then: Given that analogue 5 is designed for NO release, the intracellular release of nitric oxide and production of reactive oxygen species (ROS)/reactive nitrogen species (RNS) was measured by means of redox-sensitive dyes — 4-amino-5-methylamino-2′,7′-difluorofluorescein diacetate (DAF) and dihydrorhodamine-123 (DHR) — after exposure for 48 h (Fig. 11). […] It is well documented that highly intensified production of ROS/RNS is connected with extreme cell damage and consequent cell death, whereas moderate ROS production is involved in the regulation of intracellular processes often involved in cell cycle arrest, proliferation, and differentiation[63],[64]. Apart from the moderate intracellular NO release, it was important to evaluate whether 5 released NO extracellularly. The production of NO from a nitrate group is a three-electron reduction process that can happen by a number of possible 2e^– and 1e^– pathways, commonly involving the initial liberation of a nitrite. A common method of detecting the release of NO in the extracellular compartment is the detection of nitrite ions by the Griess reaction, which quantifies the nitrite resulting from the oxidation of NO[66],[67]. […] Introduction of a nitrate moiety was also found to be beneficial in the case of rofecoxib. […]

For “4-[4-(methylnitrooxy)phenyl]-3-(1,2-dicarba-closo-dodecaboranyl)furan-2(5 H)-one [Compound 5]”, the “effect on cell viability across tested cell lines” value in test [1] is reported as “highest decrease in cell viability in all of the melanoma cell lines”. Besides, in the test with 518A2 cells, the “intracellular NO, mean fluorescence (DAF)” value was determined as 97.7 ± 1.2.
